Assay results: ChEMBL document CHEMBL6153149, “Cyclic Peptides Targeting Granzyme B: Potential Applications as PET Imaging Agents” (ACS Med Chem Lett, 2025)
Bridge positions count the residues as written; N and C are the ends. Square brackets hold non-standard residues; d marks the D form. Peptide text beside a SMILES is read from it. * marks the point of attachment. X1 = O=C(O)CN1CCN(CC(=O)O)CC(Cc2ccc(NC(=S)*)cc2)N(CC(=O)O)CC1; NMeF = CN[C@@H](Cc1ccccc1)C(=O)O

Target: Granzyme B (Homo sapiens, UniProt P10144)
Sequence (P10144 whole entry): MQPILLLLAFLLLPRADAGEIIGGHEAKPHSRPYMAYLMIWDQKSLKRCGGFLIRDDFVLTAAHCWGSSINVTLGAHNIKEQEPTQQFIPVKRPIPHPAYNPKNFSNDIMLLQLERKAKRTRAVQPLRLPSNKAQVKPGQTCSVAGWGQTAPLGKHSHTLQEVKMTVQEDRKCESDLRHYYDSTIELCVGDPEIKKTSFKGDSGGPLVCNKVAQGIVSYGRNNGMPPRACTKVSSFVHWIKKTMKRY
Experiment: Binding affinity to human granzyme B assessed as equilibrium dissociation constant by SPR method

Q: `CC(C)[C@@H]1NC(=O)[C@H](CC(=O)O)NC(=O)[C@H](Cc2ccc(O)cc2)NC(=O)[C@H](Cc2ccc(O)cc2)NC(=O)[C@H](Cc2ccccc2)N(C)C(=O)[C@H](Cc2ccccc2)N(C)C(=O)[C@H](Cc2ccccc2)NC(=O)CSC[C@@H](C(=O)NCC(=O)NCC(=O)N[C@@H](CCCCNC(=S)Nc2ccc(CC3CN(CC(=O)O)CCN(CC(=O)O)CCN3CC(=O)O)cc2)C(N)=O)NC(=O)[C@H](Cc2c[nH]cn2)NC(=O)[C@H](Cc2ccccc2)N(C)C(=O)[C@H](Cc2ccc(O)cc2)NC(=O)[C@H](C(C)C)NC(=O)[C@H](CC(=O)O)NC(=O)[C@H](C(C)C)NC(=O)[C@H](CC(=O)O)NC1=O` (stereo partly specified) ({CH2CO}-F[NMeF][NMeF]YYDVDVDVY[NMeF]HCGGK(X1)-NH2; thioether N-15) was tested. Which Kd did it give?
A: 1.1 nM
